The results in this text go back to patent US10548911B2, “Small molecule anti-scarring agents” (UNIVERSITY OF ROCHESTER, priority 2014, dated 2020).

For series [1], the system named is TGFβ-induced SBE-luciferase activity. The series can be described thus: Secondary dual luciferase screen (SBE-luciferase normalized to constitutive Renilla luciferase). It is filed as cell-based, human. The following applies: secondary dual luciferase screen, several doses (low micromolar). How it is done:
FIG. 1A is a diagram of Smad-dependent reporter construct. Four tandem Smad binding elements (SBE) were inserted upstream of the minimal Thymidine Kinase (TK) promoter. Downstream of the promoter is a destabilized version of the firefly luciferase gene (luc2P) present in the pLuc2P-Hygro plasmid which also harbors the hygromycin resistance gene. The plasmid was introduced into HEK293FT cell line and individual colonies were selected with hygromycin (200 ug/ml) to develop a Smad/TGFβ dependent-luciferase reporter cell line. FIG. 1B is a graph illustrating the response of the reporter cell line to 1 ng/ml treatment of TGFβ for 20 hours, which results in an approximately 20-fold increase of luciferase activity.
They are: Benzbromarone (“BZB”), Bithionate sodium (“BTS”), Piplartine (piperlongumine) (“PPT”), Amsacrine (“ASC”), and Alexidine (“AXD”). A secondary luciferase screening assay was performed to determine specificity and dose responsiveness of these compounds in comparison to salinomycin (“SNC”). The secondary screen utilizes dual luciferase technology that includes the above mentioned SBE-luciferase in addition to a Renilla luciferase that is under control of the constitutive SV40 promoter. Therefore the SBE-luciferase activity can be normalized to the Renilla luciferase activity to control for toxicity and non-specific effects. The secondary screen can thus be used to remove small molecules that display overt toxicity and/or non-specific effects on the primary assay.

In series [2] the test system is TGFβ-induced luciferase activity. Kind of series: Spectrum collection small molecule screen with TGFβ-dependent SBE-luciferase HEK293FT reporter cell line. It is filed as cell-based, human. The following applies: HEK293FT-luc reporter line. From the text: The minimal thymidine kinase promoter was amplified by PCR with the following forward and reverse primers, of which the forward primer contained four tandem Smad binding elements (SBE):
Restriction sites in the primers are underlined. The resultant PCR product was TOPO cloned (Invitrogen) and the correct insert was verified by DNA sequencing. The construct was digested with SacI-HindIII and the SBEx4-TK insert was purified and ligated with the pGL4.15 vector (Promega). Clones were verified by restriction digest and then tested for TGFβ responsiveness in transient transfections of 293FT cells. […] Clones were selected by treatment with 200 μg/ml hygromycin. 20 clones were selected and screened for TGFβ-induced luciferase activity. One clone that was robustly responsive was subsequently used in the small molecule screen.
Excessive scarring results from the formation of too many myofibroblasts and the production of too much extracellular matrix material such as collagen. Since TGFβ drives the formation of myofibroblasts in part through activating the Smad pathway, a reporter construct was designed to serve as a measure of TGFβ-induced Smad activity (FIG. 1A). Four tandem Smad binding elements (SBE) were inserted upstream of the minimal thymidine kinase promoter. The SBEx4-TK promoter was inserted into the pGL4.15 vector which contains a destabilized firefly luciferase gene and the hygromycin resistance gene. The pSBEx4-TK-luc-Hygro plasmid was then introduced into HEK293FT cells by lipofection. Stable clones were generated and screened for TGFβ induced luciferase activity. One clone was selected that consistently gave a 15 to 20-fold induction of luciferase activity when cells were treated with TGFβ for 24 hours (FIG. 1B).
To find compounds that inhibit TGFβ activity and thus may be novel anti-scarring compounds, the Spectrum collection of 2,300 small molecules was screened with the cell line. […] Salinomycin, an antibiotic produced from Streptomyces albus is used as coccidiostat agent in animal feed (Knirschova et al., “Multiple regulatory genes in the salinomycin biosynthetic gene cluster of Streptomyces albus CCM 4719,” Folia Microbiologica 52:359-365 (2007), which is hereby incorporated by reference in its entirety). […] Thus, further investigation was made to assess the use of salinomycin as an anti-scarring agent.

Series [3] has as its system TGFβ-induced myofibroblast formation in human fibroblasts. Kind of series: Western blot of myofibroblast markers αSMA and calponin in TGFβ-treated human (TED orbital) fibroblasts. The class given is cell-based. The following applies: 250 nM, TGFβ, 72 hours. As to the method:
TED fibroblasts were treated with TGFβ (1 ng/ml) in the presence or absence of 10-250 nM salinomycin for 72 hours to allow formation of myofibroblasts. After 72 hours, cells were harvested and analyzed by Western blot. As expected, the fibroblasts robustly responded to TGFβ, expressing high levels of αSMA and calponin (FIG. 2A). […] At 50 nM salinomycin, expression of αSMA was reduced by 4-fold over TGFβ treatment alone. Furthermore, at 250 nM salinomycin, αSMA expression was reduced by approximately 16-fold, to levels at or below untreated fibroblasts. […] Another key role of myofibroblasts in scar formation is the production of collagen. Whether salinomycin could block myofibroblast collagen production was assessed. Cells were treated with TGFβ and salinomycin as above and after 72 hours, culture medium was collected and analyzed for collagen levels using a specific collagen I antibody and slot blot analysis.
To test these four compounds, human fibroblasts were treated with TGFβ in the absence or presence of 250 nM of either salinomycin, narasin, clioquinol or monensin for 72 hours. After treatment, cell lysates were harvested and analyzed for the presence of the myofibroblast markers, αSMA and calponin (FIG. 3B).

Series [4] relates to human orbital fibroblasts. Kind of series: Myofibroblast formation assay (cell images) of Chembridge hits in human orbital fibroblasts. The class given is cell-based. How it is done: FIG. 22 is a panel of cell images showing efficacy of selected Chembridge hits in myofibroblast formation assays using human orbital fibroblasts. […] Key: SNC: salinomycin control; A1: 5255687; A2:5130037; A4:9040737; B3:9057423; C2:9018748; C3:9048694; C4:9022265.
(§1) Selected Chembridge hits were tested in myofibroblast formation assays using human orbital fibroblasts (FIG. 22) and human lung fibroblasts (FIG. 23).

The subject of a further series is TGFβ signaling. The series can be described thus: Chembridge collection screen with HEK293-Thy1 SBE-Luc cell line (normalized luciferase activity). The following applies: Chembridge collection re-screen. The class given is cell-based, human. From the text: Using the recombinant HEK293-Thy1 SBE-Luc cell line described in the preceding Examples, the Chembridge collection of 20,000 small molecules was screened to identify other small molecules that inhibit TGFβ activity and, thus, may be novel anti-scarring compounds
100 top candidates from the initial screen were re-screened. Numbers indicate the Chembride molecule ID number. The second screen controls for toxicity and non-specific effects by using a constitutive luciferase to normalize results. This assay can be further used in a high throughput fashion to analyze newly derived compounds and monitor structure activity relationships (SAR) to discover new molecules that can serve as the basis for anti-scarring therapeutics.
The two-dimensional structures of the molecules are depicted in the left hand column. Chembridge collection IDs are listed in the second column and the additional columns denote the following (in order): the molecular name, the percent inhibition of the molecule using the screen (100% being a complete inhibition) (% Inhib.), and the internal key (key) for further identification in FIGS. 22 and 23.

For the next series, the system named is human lung fibroblasts. The series can be described thus: Myofibroblast formation assay (cell images) of Chembridge hits in human lung fibroblasts. It is filed as cell-based. How it is done: FIG. 23 is a panel of cell images showing efficacy of selected Chembridge hits in myofibroblast formation assays using human lung fibroblasts. […] Key: SNC: salinomycin control; A1: 5255687; A2:5130037; A4:9040737; B3:9057423; C2:9018748; C3:9048694; C4:9022265.
as §1

Molecules are shown by their SMILES.

For the compound `CCc1oc2ccccc2c1C(=O)c1cc(Br)c(O)c(Br)c1` [BZB, benzbromarone], the “inhibition of luciferase expression, dose responsiveness” value in series [1] is recorded as “All but BZB substantially inhibited luciferase expression”. The “inhibition of TGFβ-induced luciferase activity, initial screen” value in series [2] is listed as “inhibit TGFβ-induced luciferase”.

As to `Oc1c(I)cc(Cl)c2cccnc12` [clioquinol], in series [3], the “expression of αSMA and calponin” value was “did not inhibit”.

Consider `CCOC(=O)c1c(N)sc2c1CCC/C2=N/O` [compound 5130037, ethyl 2-amino-7-(hydroxyimino)-4,5,6,7-tetrahydro-1-benzothiophene-3-carboxylate], for which, in series [4], the “TGFβ induced myofibroblast formation (cell images)” value is reported as “preventing TGFβ induced myofibroblast formation” and the “cell death (cell images)” value was “not causing cell death”. Moreover, the “% Inhib. (percent inhibition of the molecule using the screen, 100% being a complete inhibition)” value in the series on TGFβ signaling is recorded as 68%. Moreover, in the series on human lung fibroblasts, the “TGFβ induced myofibroblast formation (cell images)” value is on record as “preventing TGFβ induced myofibroblast formation” and the “cell death (cell images)” value is on record as “not causing cell death”.

On to `Cc1cc(C)c(C(=O)/C=C/c2ccccc2Cl)c(=O)[nH]1` [compound 5255687, 3-[3-(2-chlorophenyl)acryloyl]-4,6-dimethyl-2(1H)-pyridinone], for which the “TGFβ induced myofibroblast formation (cell images)” value (in series [4]; in the series with human lung fibroblasts) was “preventing TGFβ induced myofibroblast formation” each time. Also, the “cell death (cell images)” value (in series [4]; in the series on human lung fibroblasts) was “not causing cell death” in each case. In the series with TGFβ signaling, the “% Inhib. (percent inhibition of the molecule using the screen, 100% being a complete inhibition)” value is reported as 70%.

`Cc1cc(Cl)c(Cl)cc1S(=O)(=O)NCc1ccncc1` [compound 9018748, 4,5-dichloro-2-methyl-N-(4-pyridinylmethyl)benzenesulfonamide]: the “TGFβ induced myofibroblast formation (cell images)” value (in series [4]; with human lung fibroblasts) was “preventing TGFβ induced myofibroblast formation” each time. The “cell death (cell images)” value (in series [4]; in the series on human lung fibroblasts) was “not causing cell death” throughout. Moreover, the “% Inhib. (percent inhibition of the molecule using the screen, 100% being a complete inhibition)” value in the series on TGFβ signaling worked out at 95%.

`CCOc1ccc(S(=O)(=O)NCc2ccncc2)c(C)c1C` [compound 9022265, 4-ethoxy-2,3-dimethyl-N-(4-pyridinylmethyl)benzenesulfonamide]: in series [4], the “TGFβ induced myofibroblast formation (cell images)” value is given as “preventing TGFβ induced myofibroblast formation” and the “cell death (cell images)” value is “not causing cell death”. For the same compound, the “% Inhib. (percent inhibition of the molecule using the screen, 100% being a complete inhibition)” value with TGFβ signaling stood at 84%. In the series with human lung fibroblasts, the “TGFβ induced myofibroblast formation (cell images)” value is recorded as “preventing TGFβ induced myofibroblast formation” and the “cell death (cell images)” value is “not causing cell death”.

With `Cc1nn2c(=O)cc(-c3ccccc3)[nH]c2c1-c1ccc(F)cc1` [compound 9040737, 3-(4-fluorophenyl)-2-methyl-5-phenylpyrazolo[1,5-a]pyrimidin-7(4H)-one], the “TGFβ induced myofibroblast formation (cell images)” value (in series [4]; with human lung fibroblasts) was “preventing TGFβ induced myofibroblast formation” throughout. Moreover, the “cell death (cell images)” value (in series [4]; with human lung fibroblasts) was “not causing cell death” in each case. The “% Inhib. (percent inhibition of the molecule using the screen, 100% being a complete inhibition)” value with TGFβ signaling is on record as 63%.

In the case of `COc1ccccc1NC(=O)C#Cc1ccccc1` [compound 9048694, N-(2-methoxyphenyl)-3-phenyl-2-propynamide], in series [4], the “TGFβ induced myofibroblast formation (cell images)” value is “preventing TGFβ induced myofibroblast formation” and the “cell death (cell images)” value is reported as “not causing cell death”. Moreover, the “% Inhib. (percent inhibition of the molecule using the screen, 100% being a complete inhibition)” value with TGFβ signaling came out at 92%. Further, in the series with human lung fibroblasts, the “TGFβ induced myofibroblast formation (cell images)” value is on record as “preventing TGFβ induced myofibroblast formation” and the “cell death (cell images)” value is “not causing cell death”.

For `CNC(=O)c1ccccc1OCCOc1ccccc1` [compound 9057423, N-methyl-2-(2-phenoxyethoxy)benzamide], the “TGFβ induced myofibroblast formation (cell images)” value (in series [4]; with human lung fibroblasts) was “preventing TGFβ induced myofibroblast formation” each time. The “cell death (cell images)” value (in series [4]; in the series with human lung fibroblasts) was “not causing cell death” throughout. The “% Inhib. (percent inhibition of the molecule using the screen, 100% being a complete inhibition)” value in the series on TGFβ signaling amounted to 51%.

Turning to `CC[C@@]1([C@@H]2O[C@@H]([C@H]3O[C@@](O)(CO)[C@H](C)C[C@@H]3C)C[C@@H]2C)CC[C@H]([C@]2(C)CC[C@]3(C[C@H](O)[C@@H](C)[C@@H]([C@@H](C)[C@@H](OC)[C@H](C)C(=O)O)O3)O2)O1` [monensin], the “expression of αSMA and calponin” value in series [3] was “inhibited expression of αSMA and calponin”.
